86 compounds from a melting point compilation (Tetko et al.) can be followed below.

SMILES strings stand for the structures.

As a reminder, the melting point is the temperature of the solid-liquid transition.

For the compound `CCOc1ccc(Br)cc1N`, the melting point lay in the range of 51 to 53 °C. For `NS(=O)(=O)C1CCCNC1` (stereo unspecified) the value was 119 to 121 °C; for `O=C(NCc1cn[nH]c1)OCc1ccccc1`, 126 to 128 °C; for `O=c1[nH]nc2n1CCNC2`, 179 to 181 °C. On to `Cc1ccnc(-n2cc(S(N)(=O)=O)cn2)c1`, for which the melting point is 156 to 158 °C. The same measure for `c1ccc(NCc2cccc3ccccc23)cc1`: 54 to 56 °C; for `CS(=O)(=O)c1cc(C(=O)O)cc([N+](=O)[O-])c1`: 229 to 231 °C; for `COc1ccc(NC(=O)C(C)Cl)c(OC)c1` (stereo unspecified): 65 to 67 °C. Turning to `CCCCCCCC(=O)NCCCC(=O)O`, the melting point was 69 to 71 °C.

`CS(=O)(=O)Cc1cccc(S(=O)(=O)Cl)c1` yielded a melting point of 142 to 144 °C. For `OCc1cc(Cl)cc2c1OCC2` the value was 97 to 99 °C; for `CCc1c(C)[nH]c2ccc(Oc3ccccc3)cc2c1=O`, 266 to 268 °C; for `Cc1cn2cccnc2n1`, 97 to 99 °C. Consider `O=C(O)C1=NN(c2ccc(Cl)cc2)C(=O)CC1`, for which the melting point was in the range of 161 to 163 °C. The compound `Nc1nc(-c2cc(F)ccc2F)cs1` gave a melting point of 145 to 147 °C. The compound `Nc1nnc(SCc2cccs2)s1` yielded a melting point of 141 to 143 °C. Compound `Nc1cc(Br)c[nH]c1=S` displayed a melting point of 190 to 192 °C.

As for `O=C(O)CCN1CCCC1=O`, the melting point was in the range of 109 to 111 °C. Consider `Cn1cc(CC(=O)O)cn1`, for which the melting point is 121 to 123 °C. In turn, `CC(N)c1cccc(NC(=O)c2ccccc2)c1` (stereo unspecified) registered a melting point of 115 to 117 °C. In turn, `Nc1ccccc1C(=O)Nc1ccc2c(c1)OCCO2` registered a melting point of 117 to 119 °C.

`O=C(O)CSc1ccccc1[N+](=O)[O-]` yielded a melting point of 166 to 168 °C. As for `CC(=O)Oc1cccc2ccc(O)nc12`, the melting point is 251 to 253 °C. For the compound `O=Cc1nc(-c2cc(Cl)ccc2Cl)cs1`, the melting point is 112 to 114 °C. `CS(=O)(=O)c1ccc(OCCCBr)cc1`: the melting point is 93 to 95 °C. In turn, `CCc1ccc(C(N)C(=O)O)cc1` (stereo unspecified) returned a melting point of 219 to 221 °C. Compound `O=[N+]([O-])c1ccc2nc(S)oc2c1` showed a melting point of 192 to 194 °C. For `CCCc1noc2nc(-c3ccco3)cc(C(=O)O)c12`, the melting point was in the range of 204 to 206 °C. The same measure for `COc1ccc2[nH]cc(C(=O)O)c2c1`: 179 to 181 °C; for `Cc1cc(O)nc(-c2ccc(-c3ccccc3)cc2)n1`: 275 to 277 °C. The same measure for `CC(C)c1c(C(=O)O)cnn1-c1cccc(Cl)c1`: 161 to 163 °C; for `Cc1ccc(-n2nnc(CC(=O)O)c2C)cc1`: 194 to 196 °C; for `Cc1cccc(NC(=O)CN2CCNCC2)c1C`: 55 to 57 °C. Take `CCc1nn(C)c(Cl)c1C=O`: the melting point is 38 to 40 °C.

`CC(=O)c1ccc(N2CCC(O)CC2)cc1` had a melting point of 127 to 129 °C. Regarding `COc1ccc(-c2csc(CN)c2)cc1`, the melting point lay in the range of 124 to 126 °C. On to `COC(=O)c1ccncc1C(=O)O`, for which the melting point lay within 175 to 177 °C.

The compound `NS(=O)(=O)c1ccc(CCNS(=O)(=O)c2cccc(C(=O)O)c2)cc1` registered a melting point of 226 to 228 °C. The compound `COc1ccc2ocnc2c1` displayed a melting point of 75 to 77 °C. In turn, `N#Cc1ccc(CSc2ccccc2C(=O)O)cc1` showed a melting point of 208 to 210 °C.

Consider `COc1ccc(-n2c(CCl)nc3ccccc32)cc1`, for which the melting point was in the range of 121 to 125 °C. Take `Cc1c(C(N)=O)sc2nc[nH]c(=O)c12`: the melting point is 283 to 285 °C. `O=C(O)c1ccccc1SCC(=O)N1CCc2ccccc21` gave a melting point of 152 to 154 °C. In turn, `N#Cc1ccc(COc2ccccc2F)cc1` returned a melting point of 68 to 70 °C. `NC(=O)CNCc1ccc(OCc2ccccc2)cc1` returned a melting point of 140 to 142 °C. In turn, `CC(C)CCNC(N)=S` displayed a melting point of 93 to 95 °C. As for `Cc1cc(N)ccc1OCCN1CCCC1`, the melting point is 112 to 114 °C.

As to `Cc1nc(-c2ccc(Br)cc2)sc1C(C)O` (stereo unspecified), the melting point lay within 119 to 121 °C. In turn, `CC(C)n1nc(C(=O)O)c2ccccc2c1=O` had a melting point of 142 to 144 °C. `Cc1ccc(-c2nc(C(=O)O)cs2)c(C)c1` gave a melting point of 129 to 131 °C. In the case of `O=C(O)c1cncn1-c1ccccc1`, the melting point lay within 208 to 215 °C.

`COc1cc(C=O)ccc1OCCC(=O)O` showed a melting point of 130 to 132 °C.

Turning to `C/C(=N\O)c1sc(C(C)(C)C)nc1C`, the melting point lay within 117 to 119 °C. `Nc1cn[nH]c(=O)c1Cl` had a melting point of 299 to 301 °C. Compound `COc1cccc(C(=O)NN)c1OC` came in with a melting point of 77 to 79 °C. Compound `Nc1ccn(-c2ccc(Cl)cc2Cl)n1` returned a melting point of 114 to 116 °C. Consider `FC(F)(F)CN1CCNc2ccccc21`, for which the melting point is 62 to 64 °C. The compound `O=C(O)C1COc2ccc(Cl)cc2C1` (stereo unspecified) displayed a melting point of 85 to 87 °C. As for `Sc1ncc(-c2ccccc2)n1-c1ccccc1`, the melting point was 250 to 252 °C. Turning to `CC(C)(C)OC(=O)N1CCCc2cc(N)ccc21`, the melting point was 55 to 57 °C.

For `CCOc1ccc(C(=O)O)cc1[N+](=O)[O-]`, the melting point is 201 to 203 °C. With `Cc1nnc(CO)n1C`, the melting point was 155 to 157 °C.

Take `Oc1ccc(-c2nc3cc(Cl)ccc3s2)cc1`: the melting point lay in the range of 263 to 265 °C. For `Cc1cccc(C(=O)Nc2ccc(O)cc2)c1` the value was 158 to 160 °C; for `c1ccc(-c2nnc3n2CCNC3)cc1`, 159 to 161 °C. For `O=C(O)c1c[nH]nn1` the value was 212 to 214 °C; for `ClCc1nc(-c2cc(Br)cs2)no1`, 56 to 58 °C. As for `CSc1ccccc1NC(=O)C(C)Cl` (stereo unspecified), the melting point is 59 to 61 °C. With `O=C1CC(Cc2ccc(F)cc2)C(=O)N1` (stereo unspecified), the melting point fell in the range of 107 to 109 °C. `O=C(O)c1sc(-c2ccccc2)cc1OCc1ccccc1` gave a melting point of 178 to 180 °C. `Brc1ccccc1Oc1ccncc1` gave a melting point of 68 to 70 °C. The compound `CC(C)(C)OC(=O)NC12CCC(C(=O)O)(C1)C2` had a melting point of 169 to 171 °C. The compound `COC(=O)c1sc(Cl)nc1Cl` displayed a melting point of 54 to 56 °C. Regarding `CC(C)c1cc(C(=O)O)nn1-c1ccccn1`, the melting point fell in the range of 146 to 148 °C.

Turning to `COc1ccc2cc(C(=O)CBr)ccc2c1`, the melting point lay within 108 to 110 °C. As for `N#Cc1ccccc1-c1ccc(CN2CCOCC2)cc1`, the melting point fell in the range of 71 to 73 °C. On to `Nc1ccc(=O)n(Cc2ccc(Cl)c(Cl)c2)c1`, for which the melting point lay in the range of 131 to 133 °C. The compound `O=C(O)C1CCCN1S(=O)(=O)c1ccc(Br)cc1` (stereo unspecified) displayed a melting point of 103 to 105 °C.

As for `Cc1ccc(CC(=O)O)cn1`, the melting point was in the range of 159 to 161 °C. In the case of `O=C(O)c1cc([N+](=O)[O-])ccc1N1CCCCC1`, the melting point lay within 194 to 196 °C. The same measure for `O=c1cc(-c2cccc(Cl)c2)[nH]c(=O)[nH]1`: 248 to 250 °C. Take `NS(=O)(=O)Cc1ccc([N+](=O)[O-])cc1Br`: the melting point was 200 to 202 °C. For `CN(C)CC(N)=NO` the value was 135 to 137 °C; for `NC(=O)C1CCCN(c2ccc(N)cn2)C1` (stereo unspecified), 168 to 170 °C. Turning to `O=C(NCCS(=O)(=O)Cl)OCc1ccccc1`, the melting point was in the range of 39 to 41 °C. With `CNC(C)c1sc(-c2ccc(C)cc2)nc1C` (stereo unspecified), the melting point lay within 77 to 79 °C.
